pIC50: −log10 of the molar value.
Assays:
Acetylcholinesterase [1] = biological target: T1, Acetylcholinesterase (Homo sapiens, UniProt P22303); assay: Inhibition of AChE (unknown origin) using acetylthiocholine iodide as substrate measured for 20 mins by Ellman's method
[2] = biological target: T2, Amine oxidase [flavin-containing] A (Homo sapiens, UniProt P21397); assay: Inhibition of MAO-A (unknown origin)
T2 sequence (P21397 whole entry): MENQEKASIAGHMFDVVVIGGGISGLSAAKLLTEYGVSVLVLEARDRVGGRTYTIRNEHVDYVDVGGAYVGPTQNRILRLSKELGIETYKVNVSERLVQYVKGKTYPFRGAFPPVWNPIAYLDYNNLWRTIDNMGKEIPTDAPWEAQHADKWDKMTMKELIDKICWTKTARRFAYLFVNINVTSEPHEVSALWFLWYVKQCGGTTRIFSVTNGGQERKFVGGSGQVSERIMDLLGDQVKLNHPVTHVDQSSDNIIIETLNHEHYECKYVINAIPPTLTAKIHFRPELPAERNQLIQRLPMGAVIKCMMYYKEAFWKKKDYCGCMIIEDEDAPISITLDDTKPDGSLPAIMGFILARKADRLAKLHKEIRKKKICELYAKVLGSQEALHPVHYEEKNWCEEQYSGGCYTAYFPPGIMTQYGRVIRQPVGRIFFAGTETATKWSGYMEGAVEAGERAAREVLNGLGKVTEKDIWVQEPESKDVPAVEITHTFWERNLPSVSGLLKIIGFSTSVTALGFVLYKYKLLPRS

[3] = biological target: T3, Amine oxidase [flavin-containing] B (Homo sapiens, UniProt P27338); assay: Inhibition of MAO-B (unknown origin)
T3 sequence (P27338 whole entry): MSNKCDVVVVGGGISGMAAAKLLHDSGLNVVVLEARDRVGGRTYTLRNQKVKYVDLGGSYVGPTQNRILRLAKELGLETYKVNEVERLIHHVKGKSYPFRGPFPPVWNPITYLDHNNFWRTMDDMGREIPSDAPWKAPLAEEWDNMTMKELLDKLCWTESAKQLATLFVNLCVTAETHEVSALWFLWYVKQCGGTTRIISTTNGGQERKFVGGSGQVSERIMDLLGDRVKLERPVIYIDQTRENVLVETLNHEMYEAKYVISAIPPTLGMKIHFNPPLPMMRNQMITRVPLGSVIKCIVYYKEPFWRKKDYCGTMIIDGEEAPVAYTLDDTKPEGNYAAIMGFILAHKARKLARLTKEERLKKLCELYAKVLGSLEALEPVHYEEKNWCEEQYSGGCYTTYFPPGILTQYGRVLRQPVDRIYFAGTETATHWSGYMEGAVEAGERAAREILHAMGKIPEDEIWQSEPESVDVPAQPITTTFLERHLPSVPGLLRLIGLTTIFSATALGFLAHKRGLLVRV

Acetylcholinesterase [4] = biological target: T1, Acetylcholinesterase; assay: Inhibition of AChE (unknown origin) incubated for 1 hr by Ellman's method
Beta-secretase 1 [5] = biological target: T4, Beta-secretase 1 (Homo sapiens, UniProt P56817); assay: Inhibition of BACE-1 (unknown origin)
T4 sequence (P56817 whole entry): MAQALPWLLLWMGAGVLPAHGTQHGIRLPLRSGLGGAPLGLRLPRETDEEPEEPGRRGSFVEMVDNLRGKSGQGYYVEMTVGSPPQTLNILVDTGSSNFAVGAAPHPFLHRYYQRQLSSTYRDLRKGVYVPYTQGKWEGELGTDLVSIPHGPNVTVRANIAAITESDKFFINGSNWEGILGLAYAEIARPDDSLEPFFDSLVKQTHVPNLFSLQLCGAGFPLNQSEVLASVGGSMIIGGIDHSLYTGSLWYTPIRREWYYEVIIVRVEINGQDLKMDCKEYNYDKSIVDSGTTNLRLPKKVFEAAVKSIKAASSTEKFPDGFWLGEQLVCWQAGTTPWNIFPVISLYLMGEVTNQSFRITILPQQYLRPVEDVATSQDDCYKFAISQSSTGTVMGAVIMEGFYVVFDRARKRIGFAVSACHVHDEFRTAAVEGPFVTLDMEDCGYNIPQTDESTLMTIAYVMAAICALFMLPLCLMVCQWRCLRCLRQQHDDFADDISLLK

[6] = biological target: T5, Glycogen synthase kinase-3 beta (Homo sapiens, UniProt P49841)
T5 sequence (P49841 whole entry): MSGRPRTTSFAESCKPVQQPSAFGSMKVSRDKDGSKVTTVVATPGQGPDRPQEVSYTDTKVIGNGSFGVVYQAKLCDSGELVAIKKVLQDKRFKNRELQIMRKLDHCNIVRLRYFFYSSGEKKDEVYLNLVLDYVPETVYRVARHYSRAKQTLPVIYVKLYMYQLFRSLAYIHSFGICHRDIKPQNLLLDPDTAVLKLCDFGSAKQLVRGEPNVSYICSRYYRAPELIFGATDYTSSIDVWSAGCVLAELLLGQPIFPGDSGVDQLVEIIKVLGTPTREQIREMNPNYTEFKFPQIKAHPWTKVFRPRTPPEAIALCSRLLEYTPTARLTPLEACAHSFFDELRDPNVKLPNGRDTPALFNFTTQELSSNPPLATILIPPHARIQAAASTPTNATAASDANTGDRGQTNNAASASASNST
Description: Inhibition of human GSK3beta by TR-FRET analysis

Acetylcholinesterase [7] = biological target: T6, Acetylcholinesterase (Electrophorus electricus, UniProt O42275); assay: Inhibition of electric eel AChE by Ellman's method
T6 sequence (O42275 whole entry): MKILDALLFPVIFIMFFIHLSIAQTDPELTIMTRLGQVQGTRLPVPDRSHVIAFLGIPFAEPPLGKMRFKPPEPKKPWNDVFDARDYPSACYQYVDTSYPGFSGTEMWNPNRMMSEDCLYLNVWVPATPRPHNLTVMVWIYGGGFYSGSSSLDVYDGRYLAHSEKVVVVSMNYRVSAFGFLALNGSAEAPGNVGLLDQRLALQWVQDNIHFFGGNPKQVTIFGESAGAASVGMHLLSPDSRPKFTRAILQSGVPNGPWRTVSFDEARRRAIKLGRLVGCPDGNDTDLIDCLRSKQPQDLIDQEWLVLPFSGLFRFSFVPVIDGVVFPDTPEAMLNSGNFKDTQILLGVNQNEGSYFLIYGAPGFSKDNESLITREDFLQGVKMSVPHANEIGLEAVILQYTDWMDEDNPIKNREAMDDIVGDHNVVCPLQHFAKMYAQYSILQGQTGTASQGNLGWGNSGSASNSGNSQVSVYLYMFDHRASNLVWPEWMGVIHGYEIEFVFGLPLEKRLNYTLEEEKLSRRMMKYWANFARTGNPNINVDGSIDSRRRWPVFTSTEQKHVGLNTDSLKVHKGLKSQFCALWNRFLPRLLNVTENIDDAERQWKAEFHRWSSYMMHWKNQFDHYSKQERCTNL

Acetylcholinesterase [8] = biological target: T1, Acetylcholinesterase; assay: Inhibition of AChE (unknown origin) using acetylthiocholine iodide as substrate measured after 15 mins by Ellman's method
[9] = biological target: T5, Glycogen synthase kinase-3 beta; assay: Inhibition of GSK3beta (unknown origin)
Beta-secretase 1 [10] = biological target: T4, Beta-secretase 1; assay: Inhibition of BACE-1 (unknown origin) incubated for 60 mins by TR-FRET assay
Acetylcholinesterase [11] = biological target: T1, Acetylcholinesterase; assay: Inhibition of human recombinant AChE using acetylthiocholine iodide as substratE incubated for 20 mins by DTNB reagent based Ellman's method
Beta-secretase 1 [12] = biological target: T4, Beta-secretase 1; assay: Inhibition of human BACE-1 by FRET assay
Acetylcholinesterase [13] = biological target: T1, Acetylcholinesterase; assay: Inhibition of AChE (unknown origin)
[14] = biological target: High affinity cGMP-specific 3',5'-cyclic phosphodiesterase 9A (Homo sapiens, UniProt O76083); assay: Inhibition of PDE9A (unknown origin)
High affinity cGMP-specific 3',5'-cyclic phosphodiesterase 9A, sequence (O76083 whole entry): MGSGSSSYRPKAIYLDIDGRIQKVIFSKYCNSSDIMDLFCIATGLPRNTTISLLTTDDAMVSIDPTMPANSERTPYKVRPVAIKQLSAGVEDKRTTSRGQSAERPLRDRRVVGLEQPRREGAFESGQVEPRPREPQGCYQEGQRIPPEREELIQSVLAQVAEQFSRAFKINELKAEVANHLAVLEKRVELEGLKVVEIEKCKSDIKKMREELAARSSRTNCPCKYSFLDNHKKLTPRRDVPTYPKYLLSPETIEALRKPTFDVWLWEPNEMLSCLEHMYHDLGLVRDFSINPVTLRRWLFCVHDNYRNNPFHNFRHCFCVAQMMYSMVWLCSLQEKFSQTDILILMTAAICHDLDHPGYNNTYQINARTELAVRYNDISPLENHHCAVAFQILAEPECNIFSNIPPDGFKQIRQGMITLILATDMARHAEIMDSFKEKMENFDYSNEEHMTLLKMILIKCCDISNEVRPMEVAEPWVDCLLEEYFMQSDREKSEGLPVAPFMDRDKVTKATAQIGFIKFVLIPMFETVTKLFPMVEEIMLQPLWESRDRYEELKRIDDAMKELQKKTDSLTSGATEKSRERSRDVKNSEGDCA

Acetylcholinesterase [15] = biological target: T6, Acetylcholinesterase; assay: Inhibition of electric eel AChE using acetylthiocholine iodide as substrate preincubated for 5 mins followed by substrate addition by DTNB reagent based Ellman's method
Acetylcholinesterase [16] = biological target: T1, Acetylcholinesterase
Description: Inhibition of human AChE by Ellman's method

Acetylcholinesterase [17] = biological target: T1, Acetylcholinesterase; assay: Inhibition of human AChE using acetylthiocholine iodide as substrate after 15 mins by Ellman's method
Cholinesterase [18] = biological target: T7, Cholinesterase (Homo sapiens, UniProt P06276); assay: Inhibition of BChE (unknown origin) incubated for 10 mins by Ellman's method
T7 sequence (P06276 whole entry): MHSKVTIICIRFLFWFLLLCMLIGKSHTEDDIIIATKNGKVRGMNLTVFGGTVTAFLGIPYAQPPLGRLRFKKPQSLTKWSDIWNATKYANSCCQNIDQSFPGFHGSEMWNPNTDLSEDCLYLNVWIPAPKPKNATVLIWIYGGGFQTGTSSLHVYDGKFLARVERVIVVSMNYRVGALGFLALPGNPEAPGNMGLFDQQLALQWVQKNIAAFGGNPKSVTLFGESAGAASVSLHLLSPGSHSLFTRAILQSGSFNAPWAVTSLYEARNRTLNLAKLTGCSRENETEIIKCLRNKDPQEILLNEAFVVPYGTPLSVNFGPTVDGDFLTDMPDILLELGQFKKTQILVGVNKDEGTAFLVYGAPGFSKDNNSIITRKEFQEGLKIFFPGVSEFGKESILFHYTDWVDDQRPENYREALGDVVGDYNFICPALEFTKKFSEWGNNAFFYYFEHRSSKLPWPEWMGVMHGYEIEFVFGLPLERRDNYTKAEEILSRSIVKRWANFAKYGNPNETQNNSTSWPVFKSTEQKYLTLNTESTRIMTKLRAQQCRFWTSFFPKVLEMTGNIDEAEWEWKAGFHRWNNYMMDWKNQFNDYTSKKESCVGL

Acetylcholinesterase [19] = biological target: T6, Acetylcholinesterase; assay: Inhibition of electric eel AChE using acetylthiocholine iodide as substrate preincubated with compounds for 20 mins followed by substrate addition and measured after 5 mins by Ellman's method
Beta-secretase 1 [20] = biological target: T4, Beta-secretase 1; assay: Inhibition of BACE-1 (unknown origin) measured after 2 hrs by FRET assay
Acetylcholinesterase [21] = biological target: T1, Acetylcholinesterase; remark: listed apart in the source
[22] = biological target: T5, Glycogen synthase kinase-3 beta; assay: Inhibition of human recombinant GSK3beta by ADP-Glo Kinase Assay
Cholinesterase [23] = biological target: Cholinesterase (Equus caballus, UniProt P81908); assay: Inhibition of equine serum BuChE using butyrylthiocholine iodide as substrate preincubated for 5 mins followed by substrate addition by DTNB reagent based Ellman's method
Cholinesterase (Equus caballus, UniProt P81908), sequence (P81908 whole entry): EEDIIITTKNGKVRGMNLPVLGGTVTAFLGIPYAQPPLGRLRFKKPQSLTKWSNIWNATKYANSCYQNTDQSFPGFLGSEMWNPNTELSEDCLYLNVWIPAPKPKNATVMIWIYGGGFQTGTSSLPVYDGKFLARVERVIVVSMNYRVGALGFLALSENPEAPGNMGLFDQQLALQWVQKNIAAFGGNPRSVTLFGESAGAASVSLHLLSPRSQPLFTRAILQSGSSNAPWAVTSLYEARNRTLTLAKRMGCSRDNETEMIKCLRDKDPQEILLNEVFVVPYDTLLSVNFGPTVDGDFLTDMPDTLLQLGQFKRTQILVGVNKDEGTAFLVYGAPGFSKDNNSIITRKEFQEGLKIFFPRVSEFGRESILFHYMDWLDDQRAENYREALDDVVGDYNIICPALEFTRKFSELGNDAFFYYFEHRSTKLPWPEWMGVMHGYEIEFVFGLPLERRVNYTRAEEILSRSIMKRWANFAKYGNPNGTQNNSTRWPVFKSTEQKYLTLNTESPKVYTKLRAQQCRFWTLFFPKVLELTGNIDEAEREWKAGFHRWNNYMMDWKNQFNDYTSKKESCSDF

[24] = Permeability of compound at pH 7.4 by PAMPA assay; type: ADME; conditions: read-out: permeability
Cholinesterase [25] = biological target: T7, Cholinesterase; assay: Inhibition of human BChE using butyrylthiocholineiodide as substrate measured for 30 mins by Ellman's method
Acetylcholinesterase [26] = biological target: T1, Acetylcholinesterase; assay: Inhibition of human AChE using acetylthiocholine iodide as substrate measured for 1 hr by Ellman's method

T1 sequence (P22303 whole entry): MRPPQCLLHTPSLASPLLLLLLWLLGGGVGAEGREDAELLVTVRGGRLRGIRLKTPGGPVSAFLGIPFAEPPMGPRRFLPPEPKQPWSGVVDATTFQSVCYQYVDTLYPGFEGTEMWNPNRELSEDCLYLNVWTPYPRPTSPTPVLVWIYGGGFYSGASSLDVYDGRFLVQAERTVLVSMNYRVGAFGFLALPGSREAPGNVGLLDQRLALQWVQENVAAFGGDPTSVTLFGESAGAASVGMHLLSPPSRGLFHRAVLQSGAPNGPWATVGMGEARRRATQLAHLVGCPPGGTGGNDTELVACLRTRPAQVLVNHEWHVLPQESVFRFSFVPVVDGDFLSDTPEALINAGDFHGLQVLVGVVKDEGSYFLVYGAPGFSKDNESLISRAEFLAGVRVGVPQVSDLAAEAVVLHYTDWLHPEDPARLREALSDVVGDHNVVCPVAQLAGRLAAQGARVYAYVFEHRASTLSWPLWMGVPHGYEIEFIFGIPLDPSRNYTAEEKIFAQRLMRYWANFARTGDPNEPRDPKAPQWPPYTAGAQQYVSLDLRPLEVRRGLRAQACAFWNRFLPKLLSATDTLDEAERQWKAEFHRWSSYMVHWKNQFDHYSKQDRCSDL

## COc1cc(/C=C2\Oc3cc(OCCN4CCCCC4)ccc3C2=O)cc(OC)c1OC
Acetylcholinesterase [1]
  pIC50: 5.81
[2]
  pIC50: < 4.00
[3]
  pIC50: 6.47

## COC(=O)c1ccc(/C=N/NC(=O)c2ccc(Cl)nc2)cc1
Acetylcholinesterase [4]
  pIC50: 7.00
Beta-secretase 1 [5]
  pIC50: 5.55

## O=CNc1nccc2c1[nH]c1cc(C(=O)NCCC3CCN(Cc4ccccc4F)CC3)ccc12
[6]
  pIC50: 5.17
Acetylcholinesterase [7]
  pIC50: 6.57

## CSc1ccc(/C=C/C(=O)c2ccccc2N)cn1
Acetylcholinesterase [8]
  pIC50: 5.91

## Cn1c(NCC(=O)c2ccccc2)nc(-c2ccncc2)cc1=O
[9]
  pIC50: 5.25

## Nc1ccccc1C(=O)/C=C/c1cnc2ccccc2c1
Beta-secretase 1 [10]
  pIC50: 4.77
Acetylcholinesterase [8]
  pIC50: 6.27

## COc1ccc(NC(=O)C2CCN(Cc3ccccc3)CC2)cc1OC
Acetylcholinesterase [11]
  pIC50: 6.84
Beta-secretase 1 [12]
  pIC50: 6.61

## Nc1ccccc1C(=O)/C=C/c1cnc2c(c1)OCO2
Acetylcholinesterase [8]
  pIC50: 5.38

## O=c1[nH]c(CCCCC2CCN(Cc3ccccc3)CC2)nc2c1cnn2C1CCCC1
Acetylcholinesterase [13]
  pIC50: 7.40
[14]
  pIC50: 6.55

## CCOc1ccc(C(=O)/C=C/c2ccccc2)cc1
Acetylcholinesterase [15]
  pIC50: 5.49
[2]
  pIC50: 4.55
[3]
  pIC50: 6.40

## O=C(CN1CCC(Cc2ccccc2)CC1)c1ccc2ccccc2c1
Acetylcholinesterase [16]
  pIC50: 5.04

## CCOc1cc(/C=N/NC(=O)c2ccc(Cl)nc2)ccc1O
Acetylcholinesterase [4]
  pIC50: 7.52
Beta-secretase 1 [5]
  pIC50: 6.15

## COc1ccc(/C=C/C(=N/Oc2ccc(/C=C/C(=O)c3ccc(F)cc3)cc2)c2ccc(OC)cc2)cc1
[3]
  pIC50: 7.70

## CNC(=O)c1sc(-c2ccnc(NC(=O)C3CC3)c2)nc1OC1CCN(Cc2ccccc2)CC1
Acetylcholinesterase [17]
  pIC50: 7.14

## O=C(/C=C/c1ccc(Br)cc1)c1ccc(Cl)s1
Cholinesterase [18]
  pIC50: 4.71
Acetylcholinesterase [15]
  pIC50: 4.79
[2]
  pIC50: 5.87
[3]
  pIC50: 6.15

## COc1ccc2c(c1)C/C(=C/c1ccccc1-c1ccc3nc(N)ccc3c1)C2=O
Acetylcholinesterase [19]
  pIC50: 7.83
Beta-secretase 1 [20]
  pIC50: 7.88

## O=c1[nH]c(COCCC2CCN(Cc3ccccc3)CC2)nc2c1cnn2C1CCCC1
Acetylcholinesterase [13]
  pIC50: 6.64
[14]
  pIC50: 6.28

## Nc1ccccc1C(=O)/C=C/c1ccc(Cl)nc1
Beta-secretase 1 [10]
  pIC50: 5.08
Acetylcholinesterase [8]
  pIC50: 4.72

## COc1nc(-c2ccnc(NC(=O)C3CC3)c2)sc1C(=O)NCCNc1c2c(nc3ccccc13)CCCC2
Acetylcholinesterase [21]
  pIC50: 8.19
[22]
  pIC50: 7.18

## CN(C)c1ccc(/C=C/C(=O)c2ccc(N3CCOCC3)cc2)cc1
Cholinesterase [18]
  pIC50: < 4.40
[2]
  pIC50: < 4.40

## O=c1ccoc2ccc(OCCCN3CCCCC3)cc12
Acetylcholinesterase [16]
  pIC50: 5.25
[3]
  pIC50: 5.14

## COc1ccccc1/C=C1\Oc2cc(OCCN3CCCC3)ccc2C1=O
Acetylcholinesterase [1]
  pIC50: 5.57
[2]
  pIC50: < 4.00
[3]
  pIC50: 6.01

## Fc1ccc(-c2nnc(N3CCN(c4ccccn4)CC3)o2)c(F)c1
Beta-secretase 1 [5]
  pIC50: 6.68
Cholinesterase [23]
  pIC50: 6.80

## COc1ccc(NC(=O)C2CCN(Cc3ccccc3)CC2)cc1
Acetylcholinesterase [11]
  pIC50: 6.78
Beta-secretase 1 [12]
  pIC50: 6.60

## COc1cc(/C=C/c2nnc(-c3ccc(C(F)(F)F)cc3)o2)ccc1O
[24]
  Papp at 18 h: 5.3 ×10⁻⁶ cm/s

## [O-]/[N+](=C\c1ccc2cccc(O)c2n1)Cc1ccccc1
Cholinesterase [25]
  pIC50: 9.00
Acetylcholinesterase [26]
  pIC50: 7.52

## O=C(N/N=C/c1ccc([N+](=O)[O-])cc1)c1ccc(Cl)nc1
Acetylcholinesterase [4]
  pIC50: 7.70
Beta-secretase 1 [5]
  pIC50: 6.70

— ChEMBL document CHEMBL6127041, “Dual-target inhibitors based on acetylcholinesterase: Novel agents for Alzheimer's disease” (Eur J Med Chem, 2024)
